Numbers after ± are expanded uncertainties.

For the series the following is noted: 298.15 K; 101.33 kPa; Liquid; Vibrating tube method.
On to `COCCO` [2-methoxyethan-1-ol], for which the mass density is recorded as 960.892 ± 1.9 kg/m3. Regarding `CCCOCCO` [2-propoxyethanol], the mass density stood at 907.878 ± 1.8 kg/m3. The value for `CCO` [ethanol] was 787.577 ± 1.6 kg/m3.

Regarding `CO` [methanol], the mass density was 787.52 ± 1.6 kg/m3. The figure for `CCCO` [propan-1-ol] is 801.08 ± 1.6 kg/m3; for `CC(C)O` [propan-2-ol] it is 781.214 ± 1.6 kg/m3.

Values taken from the NIST ThermoML archive (doi:10.1021/acs.jced.5b00122).
